Test results reported in patent USRE48461E1, “Modulation of androgen receptor expression” (Ionis Pharmaceuticals, Inc., priority 2012, dated 2021).
Oligonucleotides are written 5' to 3', each unit as a sugar letter and its base; * is a phosphorothioate linkage, no mark a phosphodiester; rarer units and linkages stand in square brackets, end groups in braces. Plain capitals give the bases only. k = constrained ethyl (cEt); [5mC] = 5-methylcytosine; d = 2'-deoxy (DNA)

What was measured:
KLK2 mRNA = KLK2 mRNA (AR target gene) in C4-2B MR cells; type: cell-based, human; conditions: C4-2B MR cells, 0.04-5.00 μM
AR mRNA = AR mRNA in C4-2B cells by free uptake (hAR_LTS00943); type: cell-based, human; conditions: 24 hrs; for Percent inhibition of AR full-length mRNA: free uptake
Experimental: (§1) Cells were plated at a concentration of 1,000 cells/well in 96-well plates to measure cell proliferation, and at 4,000 cells/well to measure target reduction. ISIS 549458, ISIS 549372, ISIS 549434, and ISIS 554221 were added individually at 0.04 μM, 0.20 μM, 1.00 μM, or 5.00 μM. After an incubation period of 24 hrs, mRNA levels were measured using hAR_LTS00943.

total AR mRNA = experiment: Total (full-length) AR mRNA in C4-2B MR cells, free uptake; type: cell-based, human; conditions: C4-2B MR cells, 0.04-5.00 μM free uptake, 24 hrs
Experimental: Cells were plated at a density of 40,000 cells per well in 96-well plates and cultured in RPMI1640 medium with 10% fetal bovine serum. […] ISIS 549372, ISIS 549458, ISIS 549434, and ISIS 554221 were each added at 0.04 μM, 0.20 μM, 1.00 μM, and 5.00 μM concentrations of antisense oligonucleotide to culture media for free uptake by the cells. […] After a treatment period of 24 hrs, total AR mRNA levels were measured by quantitative real-time PCR using primer probe set RTS3559.

CWR22-RV1 cells = experiment: CWR22-RV1 cell proliferation (CellTiter 96); type: cell-based, human; conditions: RNAiMax, 6 days
Experimental: (§2) CWR22-RV1 cells were plated and transfected using RNAiMax reagent (Life Technologies) with ISIS oligonucleotides at 1.7 nM, 5.0 nM, 16.7 nM, or 50 nM concentrations. ISIS 347526 was included as a negative control. After a treatment period of 6 days, the target reduction and proliferative capacity of the cancer cells was measured.
(§3) Antisense inhibition of AR full-length mRNA was measured with the RTS3559 primer probe set. The results are presented in Table 63 as percent inhibition relative to non-treated cells. The reduction in V7 splice variant of the AR mRNA was also measured by RT-PCR using SYBR Green staining (Hu, R. et al., Cancer Res. 2009. 69: 16-22). The results are presented in Table 64, as percent reduction, relative to non-treated cells. Cell proliferation was measured with CellTiter 96® AQueous One Solution Cell Proliferation kit (Promega), following the manufacturer's instructions. Results are presented in Table 65 as percent inhibition of proliferation, relative to non-treated cells.

AR full-length mRNA = AR full-length mRNA in CWR22-RV1 cells (RNAiMax, RTS3559); type: cell-based, human; conditions: 6 days
Experimental: as §2, §3

KLK3 mRNA = KLK3 mRNA (AR target gene) in C4-2B MR cells; type: cell-based, human; conditions: C4-2B MR cells, 0.04-5.00 μM
full-length AR = experiment: Western blot of full-length AR in MDV3100-resistant C4-2B cells; type: cell-based, human; conditions: C4-2B MR cells (Example 16)
Experimental: ISIS 549372, ISIS 549434, and ISIS 554221 at 1 μM concentration of antisense oligonucleotide were each added to the culture media at 1 μM concentration for free uptake by the cells. After a treatment period of 2 days, cells were harvested in RIPA buffer containing protease inhibitors. The presence of bands for full-length AR, as well as the variant form, AR-V7, was detected by western blot using AR antibody (N-20, Santa Cruz).
Western analysis of full-length AR, as well as the AR-V7 variant, was also conducted in a manner similar to the assay described above.

[1] = test system: V7 splice variant of the AR mRNA; experiment: AR V7 splice variant mRNA in CWR22-RV1 cells (RT-PCR SYBR Green); type: cell-based, human; conditions: RNAiMax, 6 days
Experimental: as §2, §3

C4-2B MR cells = experiment: Proliferation of MDV3100-resistant C4-2B cells (CellTiter 96); type: cell-based, human; conditions: 0.04-5.00 μM, 6 days
Experimental: ISIS 549372, ISIS 549434, ISIS 549458, and ISIS 554221 were each added to the culture media at 0.04 μM, 0.20 μM, 1.00 μM, and 5.00 μM concentration of antisense oligonucleotide. ISIS 347526 was included as a negative control. After a treatment period of 6 days, the proliferative capacity of the cancer cells was measured with using CellTiter 96® AQueous One Solution Cell Proliferation kit (Promega), following the manufacturer's instructions. Results are presented in Table 41 as percent inhibition of proliferation, relative to non-treated cells.

C4-2B cells = experiment: C4-2B cell proliferation by free uptake (MTT); type: cell-based, human; conditions: day 6
Experimental: as §1
On day 6, cells plated for measuring proliferation were incubated with MTT reagent until the development of color. Color intensity was measured using a spectrophotometer at 490 nm.

[2] = cynomolgus monkey, in vivo, sc, 40 mg/kg
Experimental: (§4) Prior to the study, the monkeys were kept in quarantine for a 30-day period, during which the animals were observed daily for general health. The monkeys were 2-4 years old and weighed between 2 and 4 kg. Thirteen groups of four randomly assigned male cynomolgus monkeys each were injected subcutaneously with ISIS oligonucleotide or PBS. PBS solution or ISIS oligonucleotides, at a dose of 40 mg/kg, were administered with a loading regimen consisting of four doses on the first week of the study (days 1, 3, 5, and 7), followed by a maintenance regimen consisting of once weekly administration starting on Day 14 (weeks 2 to 6). Subcutaneous injections were performed in clock-wise rotations at 4 sites on the back; one site per dose. The injection sites were delineated by tattoo, while sedated using ketamine, and were separated by a minimum of 3 cm.
Kidney function was also assessed by urinalysis. Fresh urine from all animals was collected on day 44 using a clean cage pan on wet ice. Food was removed overnight the day before fresh urine collection was done but water was supplied. The total protein and creatinine levels were measured using a Toshiba 120FR NEO automated chemistry analyzer (Toshiba Co., Japan) and the protein to creatinine ratio was calculated.

[3] = cynomolgus monkey, in vivo, sc, 40 mg/kg; remark: listed apart in the source
Experimental: as §4
To evaluate the effect of ISIS oligonucleotides on the overall health of the animals, body and organ weights were measured.

[4] = cynomolgus monkey, in vivo, sc, 40 mg/kg; remark: listed apart in the source
[5] = cynomolgus monkey, in vivo, sc, 40 mg/kg; remark: listed apart in the source
Experimental: The monkeys were 2-4 years old and weighed between 2 and 4 kg. Thirteen groups of four randomly assigned male cynomolgus monkeys each were injected subcutaneously with ISIS oligonucleotide or PBS. PBS solution or ISIS oligonucleotides, at a dose of 40 mg/kg, were administered with a loading regimen consisting of four doses on the first week of the study (days 1, 3, 5, and 7), followed by a maintenance regimen consisting of once weekly administration starting on Day 14 (weeks 2 to 6). Subcutaneous injections were performed in clock-wise rotations at 4 sites on the back; one site per dose. The injection sites were delineated by tattoo, while sedated using ketamine, and were separated by a minimum of 3 cm.
To evaluate any inflammatory effect of ISIS oligonucleotides in cynomolgus monkeys, the monkeys were fasted overnight. Approximately, 1.5 mL of blood samples were collected from all the study groups on day 44. Blood was collected in tubes without anticoagulant for serum separation. The tubes were kept at room temperature for a minimum of 90 min and then centrifuged at 3,000 rpm for 10 min. C-reactive protein (CRP), which is synthesized in the liver and which serves as a marker of inflammation, was measured on day 43 using a Toshiba 120FR NEO chemistry analyzer (Toshiba Co., Japan). Complement C3 was also measured similarly, and the data is presented as a percentage of baseline values.

[6] = cynomolgus monkey, in vivo, sc, 40 mg/kg; remark: listed apart in the source
[7] = cynomolgus monkey, in vivo, sc, 40 mg/kg; remark: listed apart in the source
Experimental: as §4
To evaluate any effect of ISIS oligonucleotides in cynomolgus monkeys on hematologic parameters, blood samples of approximately 0.5 mL of blood was collected day 44 from each of the available study animals in tubes containing K2-EDTA. Samples were analyzed for red blood cell (RBC) count, white blood cells (WBC) count, platelet count, hemoglobin content and hematocrit, using an ADVIA2120i hematology analyzer (SIEMENS, USA).

testosterone = experiment: Serum testosterone levels in cynomolgus monkeys (ELISA); type: in vivo; conditions: cynomolgus monkey, 40 mg/kg subcutaneously, 40 mg/kg
Experimental: Serum testosterone protein levels were measured in the plasma with an ELISA kit (Enzo Life Sciences), following the manufacturer's instructions.

[8] = cynomolgus monkey, in vivo, sc, 40 mg/kg; remark: listed apart in the source

CTAAACTTCCCGTGGC (k[5mC]*kT*kA*dA*dA*d[5mC]*dT*dT*d[5mC]*d[5mC]*d[5mC]*dG*dT*kG*kG*k[5mC]) [ISIS 549434, targets 3'-end of exon 8]
AR target gene KLK2 mRNA levels (KLK2 mRNA): reduced target gene levels in a dose dependent manner more extensively than treatment with ISIS 554221 | AR mRNA expression (AR mRNA; free uptake 0.04-5.00 μM): inhibited AR mRNA expression more potently than ISIS 554221 | Percent inhibition of AR full-length mRNA (AR mRNA; dose 0.04 μM): 10% | Percent inhibition of AR full-length mRNA (AR mRNA; dose 0.20 μM): 35% | Percent inhibition of AR full-length mRNA (AR mRNA; dose 1.00 μM): 52% | Percent inhibition of AR full-length mRNA (AR mRNA; dose 5.00 μM): 55% | total AR transcript levels (total AR mRNA): reduced total AR transcript levels in a dose dependent manner more extensively than treatment with ISIS 554221 | Percent inhibition of cell proliferation (CWR22-RV1 cells; dose 5.0 nM): 15% | Percent inhibition of cell proliferation (CWR22-RV1 cells; dose 16.7 nM): 13% | Percent inhibition of cell proliferation (CWR22-RV1 cells; dose 50.0 nM): 38% | Percent inhibition of AR full-length mRNA (AR full-length mRNA; dose 5.0 nM): 46% | Percent inhibition of AR full-length mRNA (AR full-length mRNA; dose 16.7 nM): 69% | Percent inhibition of AR full-length mRNA (AR full-length mRNA; dose 50.0 nM): 86% | AR target gene KLK3 mRNA levels (KLK3 mRNA): reduced target gene levels in a dose dependent manner more extensively than treatment with ISIS 554221 | levels of full-length AR (Western analysis) (full-length AR): reduced levels of full-length AR | Percent inhibition of AR splice variant, V7 ([1]; dose 5.0 nM): 20% | Percent inhibition of AR splice variant, V7 ([1]; dose 16.7 nM): 4% | Percent inhibition of AR splice variant, V7 ([1]; dose 50.0 nM): 23% | proliferation of C4-2B MR cells (C4-2B MR cells): reduced proliferation of the cells in a dose dependent manner more extensively than treatment with ISIS 554221 | Percent inhibition of cell proliferation (C4-2B cells; dose 0.04 μM): 0% | Percent inhibition of cell proliferation (C4-2B cells; dose 0.20 μM): 14% | Percent inhibition of cell proliferation (C4-2B cells; dose 1.00 μM): 35% | Percent inhibition of cell proliferation (C4-2B cells; dose 5.00 μM): 37%

GATTTAATGGTTGCAA (cEt gapmer chemistry, further chemistry not given here) [ISIS 586124]
Urine protein/creatinine ratio [2]: 0.01 | Body Wt [3]: 2.5 kg | Heart weight [3]: 9.4 g | Kidney weight [3]: 14 g | Liver weight [3]: 58 g | Mesenteric lymph nodes weight [3]: 2.8 g | Spleen weight [3]: 3.3 g | Plasma BUN [4]: 23.8 mg/dL | Plasma Creatinine [4]: 0.87 mg/dL | C3 (% of baseline) [5]: 93 % of baseline | CRP [5]: 4.0 mg/dL | ALT [6]: 56 IU/L | AST [6]: 94 IU/L | Albumin [6]: 3.9 g/dL | HCT [7]: 45% | Hemoglobin [7]: 13.6 g/dL | Platelets [7]: 391000 µL | RBC [7]: 5.8e+06 µL | WBC [7]: 10400 µL

ISIS 583918: antisense compound targeted to human AR (AGTCGCGACTCTGGTA; 3-10-3 (S)-cEt gapmer, further chemistry not given here)
Urine protein/creatinine ratio [2]: 0.01 | Body Wt [3]: 2.5 kg | Heart weight [3]: 8.9 g | Kidney weight [3]: 12 g | Liver weight [3]: 60 g | Mesenteric lymph nodes weight [3]: 3.5 g | Spleen weight [3]: 4.6 g | Plasma BUN [4]: 24.5 mg/dL | Plasma Creatinine [4]: 0.87 mg/dL | C3 (% of baseline) [5]: 89 % of baseline | CRP [5]: 3.5 mg/dL | ALT [6]: 75 IU/L | AST [6]: 73 IU/L | Albumin [6]: 4.1 g/dL | HCT [7]: 46% | Hemoglobin [7]: 13.3 g/dL | Platelets [7]: 435000 µL | RBC [7]: 5.8e+06 µL | WBC [7]: 12700 µL

ISIS 584149: antisense compound targeted to human AR (GTCAATATCAAAGCAC; 3-10-3 (S)-cEt gapmer, further chemistry not given here)
Urine protein/creatinine ratio [2]: 0.01 | Body Wt [3]: 2.5 kg | Heart weight [3]: 9.3 g | Kidney weight [3]: 13 g | Liver weight [3]: 60 g | Mesenteric lymph nodes weight [3]: 2.1 g | Spleen weight [3]: 2.2 g | Plasma BUN [4]: 26.4 mg/dL | Plasma Creatinine [4]: 0.85 mg/dL | C3 (% of baseline) [5]: 110 % of baseline | CRP [5]: 1.7 mg/dL | ALT [6]: 57 IU/L | AST [6]: 58 IU/L | Albumin [6]: 4.5 g/dL | HCT [7]: 45% | Hemoglobin [7]: 13.7 g/dL | Platelets [7]: 478000 µL | RBC [7]: 5.7e+06 µL | WBC [7]: 11300 µL

ISIS 584163: antisense compound targeted to human AR (GAACATTATTAGGCTA; 3-10-3 (S)-cEt gapmer, further chemistry not given here)
Urine protein/creatinine ratio [2]: 0.01 | Body Wt [3]: 2.5 kg | Heart weight [3]: 8.4 g | Kidney weight [3]: 15 g | Liver weight [3]: 54 g | Mesenteric lymph nodes weight [3]: 3.3 g | Spleen weight [3]: 3.2 g | Plasma BUN [4]: 22.4 mg/dL | Plasma Creatinine [4]: 0.82 mg/dL | C3 (% of baseline) [5]: 102 % of baseline | CRP [5]: 1.0 mg/dL | ALT [6]: 50 IU/L | AST [6]: 68 IU/L | Albumin [6]: 4.2 g/dL | HCT [7]: 44% | Hemoglobin [7]: 12.8 g/dL | Platelets [7]: 461000 µL | RBC [7]: 5.5e+06 µL | WBC [7]: 9100 µL

TGATTTAATGGTTGCA [ISIS 569221] (cEt/MOE gapmer chemistry, further chemistry not given here)
Body Wt [3]: 2.5 kg | Heart weight [3]: 8.5 g | Kidney weight [3]: 14 g | Liver weight [3]: 68 g | Mesenteric lymph nodes weight [3]: 3.5 g | Spleen weight [3]: 3.3 g | Plasma BUN [4]: 20.2 mg/dL | Plasma Creatinine [4]: 0.86 mg/dL | C3 (% of baseline) [5]: 91 % of baseline | CRP [5]: 4.9 mg/dL | Serum testosterone level (testosterone): 8.8 ng/mL | ALT [6]: 48 IU/L | AST [6]: 73 IU/L | Albumin [6]: 4.0 g/dL | Oligonucleotide concentration, Kidney [8]: 1372 μg/g tissue | Oligonucleotide concentration, Liver [8]: 966 μg/g tissue | HCT [7]: 45% | Hemoglobin [7]: 12.9 g/dL | Platelets [7]: 406000 µL | RBC [7]: 5.6e+06 µL | WBC [7]: 11100 µL
